Here are results for 39 compounds from ChEMBL document CHEMBL1149187, “Design, synthesis, and biological activity of 4-[(4-cyano-2-arylbenzyloxy)-(3-methyl-3H-imidazol-4-yl)methyl]benzonitriles as potent and selective farnesyltransferase inhibitors” (J Med Chem, 2004).

Bounds are passed on as bounds.

Series [1] concerns the target T1, Protein farnesyltransferase (Homo sapiens, UniProt P49354+P49356). Nature of the series: Effective concentration required for inhibition of farnesylation of Ras protein in NIH3T3 cells. It is filed as functional, cell-based, Mus musculus.
The nature of series [2]: Area under plasma concentration time curve in dog upon oral administration.
The nature of series [3]: in vivo. The note with it: dog, plasma.
The nature of series [4]: Half-life in dog upon oral administration. Conditions: in vivo.
Series [5] has as its target Geranylgeranyl transferase type I (Homo sapiens, UniProt P49354+P53609). The series can be described thus: Inhibition of Geranylgeranyl transferase type I. It is filed as protein-complex assay.
For series [6], the target named is T1, Protein farnesyltransferase. Nature of the series: (§1) Inhibition of Farnesyltransferase. It is filed as protein-complex assay.
The target is the same in series [7]. The series is described as §1. In kind it is protein-complex assay. This is another data set of the same source.
Series [8] in a line: in vivo. The note with it: dog.
In series [9] the test system is Canis familiaris. Nature of the series: Half-life in dog upon oral administration; Unable to calculate. It is filed as ADME, organism-based, Canis lupus familiaris. The note with it: in vivo.
Series [10] is filed under the species Canis familiaris. The series can be described thus: Plasma clearance in dog; Unable to calculate. In kind it is ADME, organism-based, Canis lupus familiaris. The note with it: in vivo.

Consider `Cc1ccc(-c2cc(C#N)ccc2COC(c2ccc(C#N)cc2)c2cncn2C)cc1` (stereo not given), for which the EC50 in series [1] was more than 100 nM.

Take `COc1cccc(-c2cc([N+](=O)[O-])ccc2COC(c2ccc(C#N)cc2)c2cncn2C)c1` (stereo not given): in [1], the half-maximal effective concentration (EC50) is 0.81 nM.

Regarding `COCc1cccc(-c2cc(C#N)ccc2COC(c2ccc(C#N)cc2)c2cncn2C)c1` (stereo not given), in series [2], the AUC was found to be 260 ng·h/mL. In addition, the EC50 in series [1] worked out at 1 nM. The same compound had a clearance in “in vivo [3]” of 8.5 mL/min/kg. The compound further had a half-life in series [4] of 2.2 h.

`Cn1cncc1C(OCc1ccc(Cl)cc1-c1ccc(Cl)cc1)c1ccc(C#N)cc1` (stereo not given) came in with an EC50 in series [1] of 525 nM.

Turning to `Cc1ncc(C(OCc2ccc(C#N)cc2-c2cccc(Cl)c2)c2ccc(C#N)cc2)n1C` (stereo not given), the EC50 in [1] is 154 nM. Compared with the last compound, the EC50 is about 3.4-fold lower.

`Cn1cncc1C(OCc1ccc(C#N)cc1NS(=O)(=O)c1cccs1)c1ccc(C#N)cc1` (stereo not given) came in with an EC50 in [1] of more than 100 nM.

For the compound `N#Cc1ccc(C(OCc2ccc(C#N)cc2-c2ccc3c(c2)OCO3)c2cnccc2Cl)cc1` (stereo not given), in series [1], the EC50 was more than 100 nM.

Take `COc1cccc(-c2cc(N)ccc2COC(c2ccc(C#N)cc2)c2cncn2C)c1` (stereo not given): the EC50 in [1] was more than 100 nM.

Consider `Cn1cncc1C(OCc1ccc(C#N)cc1NCc1cc(F)cc(F)c1)c1ccc(C#N)cc1` (stereo not given), for which the EC50 in series [1] stood at 150 nM.

`Cn1cncc1C(OCc1ccc(C#N)cn1)c1ccc(C#N)c(-c2cccc3ccccc23)c1` (stereo not given): in series [1], the EC50 is 8 nM. The IC50 was determined as 24 nM in [5] and 0.4 nM in [6].

As to `Cn1cncc1C(OCc1ccc(C#N)cc1)c1ccc(C#N)c(-c2cccc3ccccc23)c1` (stereo not given), the IC50 in [5] came out at 18 nM; in [6] it was 0.3 nM.

In turn, `COCC(=O)Nc1ccc(COC(c2ccc(C#N)cc2)c2cncn2C)c(-c2cccc(OC)c2)c1` (stereo not given) displayed an EC50 in series [1] of more than 100 nM.

For `CCOc1cccc(-c2cc(C#N)ccc2COC(c2ccc(C#N)cc2)c2cncn2C)c1` (stereo not given), in [2], the AUC was 1130 ng·h/mL. In [7], this compound registered an IC50 of 0.69 nM. In series [1], this compound returned an EC50 of 0.19 nM. The compound also had a clearance in “in vivo [3]” of 16.7 mL/min/kg. Besides, the half-life in series [4] is 2.2 h.

In turn, `COc1cccc(-c2cc(NS(C)(=O)=O)ccc2COC(c2ccc(C#N)cc2)c2cncn2C)c1` (stereo not given) yielded an EC50 in series [1] of more than 100 nM.

As to `Cn1cncc1C(OCc1ccc(C#N)cc1-c1cccc(Cl)c1)c1ccc(C#N)cc1` (stereo not given), the AUC in series [2] worked out at 9890 ng·h/mL. Also, the EC50 in series [1] turned out to be 5.2 nM. Besides, the clearance in “in vivo [3]” is 6.67 mL/min/kg. In series [4], the half-life is 4.7 h.

For `CCOc1cccc(-c2cc(Cl)ccc2COC(c2ccc(C#N)cc2)c2cncn2C)c1` (stereo not given), the EC50 in series [1] was 4.6 nM.

Turning to `Cc1ncc(C(OCc2ccc(C#N)cc2-c2ccc3c(c2)OCO3)c2ccc(C#N)cc2)n1C` (stereo not given), in series [2], the area under the curve (AUC) was found to be 100 ng·h/mL. This compound also showed an EC50 in series [1] of 9.8 nM. In addition, the clearance in “in vivo [3]” is 31.2 mL/min/kg. In [4], this compound gave a half-life of 0.9 h. Moreover, the bioavailability in the series “in vivo [8]” is 15.2%.

The compound `Cn1cncc1C(OCc1ccc(Cl)cc1-c1ccccc1Cl)c1ccc(C#N)cc1` (stereo not given) yielded an AUC in series [2] of 9850 ng·h/mL. For the same compound, in the series with Canis familiaris [9], the T1/2 result was “Unable to calculate”. The compound further displayed an EC50 in series [1] of more than 1000 nM. The Clp entry in the series listed under Canis familiaris [10] was “Unable to calculate”. This compound also yielded a bioavailability in the series “in vivo [8]” of 65%.

As to `Cn1cncc1C(OCc1ccc(C#N)cc1-c1cccc2cccnc12)c1ccc(C#N)cc1` (stereo not given), in series [1], a half-maximal response (EC50) required 15 nM.

In series [2], `COc1ccc(-c2cc(C#N)ccc2COC(c2ccc(C#N)cc2)c2cncn2C)cc1` (stereo not given) came in with an AUC of 760 ng·h/mL. It took 7 nM to reach a half-maximal effect in [1] (EC50). This compound also gave a clearance in the series “in vivo [3]” of 12.2 mL/min/kg. In addition, the half-life in series [4] is 3.6 h.

`CCOc1ccc(-c2cc(C#N)ccc2COC(c2ccc(C#N)cc2)c2cncn2C)cc1` (stereo not given) registered an EC50 in [1] of 13 nM.

In the case of `Cn1cncc1C(OCc1ccc(C#N)cc1-c1ccc(F)c(F)c1)c1ccc(C#N)cc1` (stereo not given), the EC50 in series [1] was 96 nM.

As for `Cn1cncc1C(OCc1ccc(C#N)cc1-c1cccc(Cl)c1)c1ccc(C#N)c(F)c1` (stereo not given), the AUC in series [2] amounted to 1580 ng·h/mL. A half-maximal effect in [1] (EC50) was put at 36 nM. Also, the clearance in the series “in vivo [3]” is 8 mL/min/kg. The half-life in [4] was 8.7 h. Besides, the bioavailability in “in vivo [8]” was 71%.

Compound `Cn1cncc1C(OCc1ccc(C#N)cc1-c1cccc2ccccc12)c1ccc(C#N)cc1` (stereo not given) yielded an EC50 in [1] of 14 nM.

The compound `COc1cccc(-c2cc(C#N)ccc2COC(c2ccc(C#N)c(Cl)c2)c2cncn2C)c1` (stereo not given) showed an EC50 in [1] of 130 nM.

Turning to `Cn1cncc1C(OCc1ccc(C#N)cc1C(=O)Nc1cccc(Cl)c1)c1ccc(C#N)cc1` (stereo not given), the EC50 in [1] stood at 3.5 nM.

In turn, `Cn1cncc1C(OCc1ccc(C#N)cc1-c1ccc2c(c1)OCO2)c1ccc(C#N)cc1` (stereo not given) gave an AUC in series [2] of 3660 ng·h/mL. In addition, the EC50 in series [1] was less than 1 nM. In the series “in vivo [3]”, this compound showed a clearance of 10 mL/min/kg. The same compound showed a half-life in series [4] of 2.7 h.

In series [1], `COc1cccc(-c2cc(C#N)ccc2COC(c2ccc(Cl)cc2)c2cncn2C)c1` (stereo not given) displayed an EC50 of 17.7 nM.

In turn, `COc1cccc(-c2cc(C=O)ccc2COC(c2ccc(C#N)cc2)c2cncn2C)c1` (stereo not given) displayed an EC50 in series [1] of more than 100 nM.

In the case of `Cn1cncc1C(OCc1ccc(C#N)cc1NS(=O)(=O)c1cccc2ccccc12)c1ccc(C#N)cc1` (stereo not given), the EC50 in series [1] is more than 100 nM.

`Cn1cncc1C(OCc1ccc(C#N)cc1-c1cccc(Cl)c1)c1ccc(C#N)cc1F` (stereo not given) returned an EC50 in [1] of 3.3 nM. In other words, the single-digit nanomolar range.

In turn, `Cn1cncc1C(OCc1ccc(C#N)cc1-c1ccc2c(c1)OC(F)(F)O2)c1ccc(C#N)cc1` (stereo not given) showed an AUC in [2] of 2760 ng·h/mL. In addition, a half-maximal response in series [1] (EC50) required 9.1 nM. In the series “in vivo [3]”, this compound showed a clearance of 5.17 mL/min/kg. For the same compound, the half-life in [4] was 1.3 h.

Compound `Cc1ccc(S(=O)(=O)Nc2cc(C#N)ccc2COC(c2ccc(C#N)cc2)c2cncn2C)cc1` (stereo not given) registered an EC50 in series [1] of 13 nM.

Compound `Cn1cncc1C(OCc1ccc(C#N)cc1C(=O)Nc1ccccc1)c1ccc(C#N)cc1` (stereo not given) gave an exposure (AUC) in [2] of 5720 ng·h/mL. This compound also gave an EC50 in [1] of 12 nM. In addition, the clearance in “in vivo [3]” is 3.17 mL/min/kg. For the same compound, in series [4], the half-life is 18.4 h. Further, the bioavailability in “in vivo [8]” was found to be 96%.

Compound `COC(=O)c1ccc(COC(c2ccc(C#N)cc2)c2cncn2C)c(-c2cccc(OC)c2)c1` (stereo not given) gave an EC50 in series [1] of more than 100 nM.

For `COc1cccc(-c2cc(Cl)ccc2COC(c2ccc(C#N)cc2)c2cncn2C)c1` (stereo not given), the midpoint of the response in [1], the EC50, lay at 100 nM. This lies in the sub-micromolar range.

Turning to `Cn1cncc1C(OCc1ccc(C#N)cc1-c1cccc(Cl)c1)c1ccc(C(F)(F)F)cc1` (stereo not given), the concentration for a half-maximal effect (EC50) in series [1] is more than 100 nM.

For the compound `Cn1cncc1C(OCc1ccc(Cl)cc1-c1cccc(Cl)c1)c1ccc(C#N)cc1` (stereo not given), the EC50 in [1] turned out to be 390 nM.

The compound `Cn1cncc1C(OCc1ccc(C#N)cc1-c1ccc(OC(F)(F)F)cc1)c1ccc(C#N)cc1` (stereo not given) gave an AUC in series [2] of 1530 ng·h/mL. The EC50 in series [1] amounted to 5.1 nM. The clearance in the series “in vivo [3]” was 7.33 mL/min/kg. Besides, the half-life in series [4] is 6.7 h.
